In PMC6804997 (PLoS ONE, 2019):

Assays:
Test in all cases: HDAC enzyme inhibition assay (Ac-peptide-AMC substrate)
Format in all cases: biochemical
HDAC4 = HDAC4 (Homo sapiens, UniProt P56524); settings: HDAC4 vs HDAC6
Procedure: (§1) HDACs inhibition assay of F7 was performed utilizing 4-amino-7-methylcoumarin (AMC) labeled Ac-peptide (Ac-peptide-AMC) substrates, a service provided by Chempartner Company (Shanghai, China).
(§2) This assay was performed was performed utilizing 4-amino-7-methylcoumarin (AMC) labeled Ac-peptide (Ac-peptide-AMC) substrates, a service provided by Chempartner Company (Shanghai, China).

HDAC7 = biological target: T1, HDAC7 (Homo sapiens, UniProt Q8WUI4); settings: HDAC7 vs HDAC6
T1 sequence (Q8WUI4 1-952): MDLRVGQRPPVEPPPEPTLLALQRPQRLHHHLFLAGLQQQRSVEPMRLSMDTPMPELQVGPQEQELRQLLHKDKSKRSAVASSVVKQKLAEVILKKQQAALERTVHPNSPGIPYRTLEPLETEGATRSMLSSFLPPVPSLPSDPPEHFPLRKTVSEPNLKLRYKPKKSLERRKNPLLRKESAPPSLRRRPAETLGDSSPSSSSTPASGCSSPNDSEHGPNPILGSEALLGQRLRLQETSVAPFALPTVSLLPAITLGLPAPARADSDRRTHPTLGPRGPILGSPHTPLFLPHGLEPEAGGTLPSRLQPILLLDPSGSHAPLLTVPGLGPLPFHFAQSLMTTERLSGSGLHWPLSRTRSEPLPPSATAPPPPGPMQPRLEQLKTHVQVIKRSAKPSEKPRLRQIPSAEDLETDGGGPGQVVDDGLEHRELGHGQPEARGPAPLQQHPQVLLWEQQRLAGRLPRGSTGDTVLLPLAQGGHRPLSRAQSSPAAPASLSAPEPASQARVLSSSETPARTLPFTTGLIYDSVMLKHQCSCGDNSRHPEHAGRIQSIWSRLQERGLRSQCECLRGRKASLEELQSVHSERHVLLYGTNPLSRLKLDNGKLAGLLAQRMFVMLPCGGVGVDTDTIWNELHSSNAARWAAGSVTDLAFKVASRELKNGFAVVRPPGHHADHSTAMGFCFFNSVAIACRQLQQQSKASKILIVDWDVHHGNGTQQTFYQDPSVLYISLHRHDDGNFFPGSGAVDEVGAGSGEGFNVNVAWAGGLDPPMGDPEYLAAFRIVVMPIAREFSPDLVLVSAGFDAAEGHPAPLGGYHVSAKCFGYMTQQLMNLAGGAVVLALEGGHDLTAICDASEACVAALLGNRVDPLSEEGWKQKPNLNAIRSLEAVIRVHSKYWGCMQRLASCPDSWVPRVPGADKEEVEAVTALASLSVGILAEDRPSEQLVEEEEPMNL
Procedure: as §1, §2

HDAC5 = HDAC5 (Homo sapiens, UniProt Q9UQL6); settings: HDAC5 vs HDAC6
HDAC5, sequence (Q9UQL6 whole entry, species assumed): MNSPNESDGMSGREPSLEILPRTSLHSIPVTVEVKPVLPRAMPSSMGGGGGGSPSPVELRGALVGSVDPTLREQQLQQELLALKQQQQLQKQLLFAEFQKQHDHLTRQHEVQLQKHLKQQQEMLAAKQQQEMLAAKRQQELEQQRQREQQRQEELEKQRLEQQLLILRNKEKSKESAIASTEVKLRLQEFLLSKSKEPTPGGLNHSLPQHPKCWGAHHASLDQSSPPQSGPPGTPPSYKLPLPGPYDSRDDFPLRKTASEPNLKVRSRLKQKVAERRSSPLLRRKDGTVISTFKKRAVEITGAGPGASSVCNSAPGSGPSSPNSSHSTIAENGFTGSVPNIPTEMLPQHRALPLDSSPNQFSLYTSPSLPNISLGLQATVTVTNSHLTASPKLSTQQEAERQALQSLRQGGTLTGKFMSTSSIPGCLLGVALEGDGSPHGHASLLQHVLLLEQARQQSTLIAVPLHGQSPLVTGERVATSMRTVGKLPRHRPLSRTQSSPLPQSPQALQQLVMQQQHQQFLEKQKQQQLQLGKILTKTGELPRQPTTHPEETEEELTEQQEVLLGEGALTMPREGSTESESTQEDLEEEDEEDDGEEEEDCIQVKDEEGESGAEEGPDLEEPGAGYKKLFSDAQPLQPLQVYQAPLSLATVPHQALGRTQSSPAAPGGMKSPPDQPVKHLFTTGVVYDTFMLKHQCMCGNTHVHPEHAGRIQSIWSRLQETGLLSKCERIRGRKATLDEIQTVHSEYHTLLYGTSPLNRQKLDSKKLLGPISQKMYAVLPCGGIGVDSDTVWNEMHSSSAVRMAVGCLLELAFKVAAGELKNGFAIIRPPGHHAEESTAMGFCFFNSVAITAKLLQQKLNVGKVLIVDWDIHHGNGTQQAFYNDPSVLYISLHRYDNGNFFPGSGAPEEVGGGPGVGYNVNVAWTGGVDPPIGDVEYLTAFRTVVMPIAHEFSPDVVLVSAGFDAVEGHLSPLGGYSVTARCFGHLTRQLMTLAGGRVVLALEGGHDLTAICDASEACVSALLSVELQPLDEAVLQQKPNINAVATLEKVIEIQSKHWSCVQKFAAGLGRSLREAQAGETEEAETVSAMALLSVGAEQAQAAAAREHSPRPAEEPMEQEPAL
Procedure: as §1, §2

HDAC11 = biological target: T2, HDAC11 (Homo sapiens, UniProt Q96DB2); settings: HDAC11 vs HDAC6
T2 sequence (Q96DB2 1-347): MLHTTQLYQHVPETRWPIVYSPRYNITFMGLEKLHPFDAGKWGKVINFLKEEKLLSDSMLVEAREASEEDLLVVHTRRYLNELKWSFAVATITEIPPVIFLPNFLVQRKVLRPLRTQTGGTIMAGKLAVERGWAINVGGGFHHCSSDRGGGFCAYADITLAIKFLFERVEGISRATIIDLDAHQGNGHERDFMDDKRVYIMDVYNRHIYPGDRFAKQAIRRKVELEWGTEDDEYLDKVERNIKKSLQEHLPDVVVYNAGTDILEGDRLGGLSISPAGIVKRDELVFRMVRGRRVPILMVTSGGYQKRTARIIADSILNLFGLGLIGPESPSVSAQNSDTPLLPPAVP
Procedure: as §1, §2

HDAC9 = HDAC9 (Homo sapiens, UniProt Q9UKV0); settings: HDAC9 vs HDAC6
HDAC9, sequence (Q9UKV0 whole entry, species assumed): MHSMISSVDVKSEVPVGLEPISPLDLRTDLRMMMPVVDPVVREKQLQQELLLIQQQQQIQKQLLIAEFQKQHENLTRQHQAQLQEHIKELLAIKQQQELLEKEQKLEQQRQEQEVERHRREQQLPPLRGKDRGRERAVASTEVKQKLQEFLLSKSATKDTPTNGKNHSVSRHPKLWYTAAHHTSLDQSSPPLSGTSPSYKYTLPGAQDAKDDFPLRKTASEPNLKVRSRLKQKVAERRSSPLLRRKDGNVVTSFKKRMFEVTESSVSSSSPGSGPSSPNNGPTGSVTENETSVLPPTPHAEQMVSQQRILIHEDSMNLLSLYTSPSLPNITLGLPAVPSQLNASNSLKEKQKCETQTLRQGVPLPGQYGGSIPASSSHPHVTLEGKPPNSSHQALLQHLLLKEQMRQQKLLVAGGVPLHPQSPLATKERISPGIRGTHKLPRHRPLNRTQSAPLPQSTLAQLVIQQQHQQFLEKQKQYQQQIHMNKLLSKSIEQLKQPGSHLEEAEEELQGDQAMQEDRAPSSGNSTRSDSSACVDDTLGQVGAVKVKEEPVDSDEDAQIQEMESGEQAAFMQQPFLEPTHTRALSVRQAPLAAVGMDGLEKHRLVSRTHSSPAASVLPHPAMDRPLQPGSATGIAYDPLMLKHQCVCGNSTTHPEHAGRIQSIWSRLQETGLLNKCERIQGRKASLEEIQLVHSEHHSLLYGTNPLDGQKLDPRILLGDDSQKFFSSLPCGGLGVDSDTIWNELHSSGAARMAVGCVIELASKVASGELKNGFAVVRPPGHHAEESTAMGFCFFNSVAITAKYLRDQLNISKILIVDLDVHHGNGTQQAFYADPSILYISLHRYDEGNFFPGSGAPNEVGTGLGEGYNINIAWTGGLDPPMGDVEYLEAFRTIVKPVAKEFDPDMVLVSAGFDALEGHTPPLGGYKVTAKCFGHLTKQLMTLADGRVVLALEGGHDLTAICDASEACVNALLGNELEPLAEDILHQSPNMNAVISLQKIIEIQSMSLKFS
Procedure: as §1, §2

HDAC4, sequence (P56524 whole entry, species assumed): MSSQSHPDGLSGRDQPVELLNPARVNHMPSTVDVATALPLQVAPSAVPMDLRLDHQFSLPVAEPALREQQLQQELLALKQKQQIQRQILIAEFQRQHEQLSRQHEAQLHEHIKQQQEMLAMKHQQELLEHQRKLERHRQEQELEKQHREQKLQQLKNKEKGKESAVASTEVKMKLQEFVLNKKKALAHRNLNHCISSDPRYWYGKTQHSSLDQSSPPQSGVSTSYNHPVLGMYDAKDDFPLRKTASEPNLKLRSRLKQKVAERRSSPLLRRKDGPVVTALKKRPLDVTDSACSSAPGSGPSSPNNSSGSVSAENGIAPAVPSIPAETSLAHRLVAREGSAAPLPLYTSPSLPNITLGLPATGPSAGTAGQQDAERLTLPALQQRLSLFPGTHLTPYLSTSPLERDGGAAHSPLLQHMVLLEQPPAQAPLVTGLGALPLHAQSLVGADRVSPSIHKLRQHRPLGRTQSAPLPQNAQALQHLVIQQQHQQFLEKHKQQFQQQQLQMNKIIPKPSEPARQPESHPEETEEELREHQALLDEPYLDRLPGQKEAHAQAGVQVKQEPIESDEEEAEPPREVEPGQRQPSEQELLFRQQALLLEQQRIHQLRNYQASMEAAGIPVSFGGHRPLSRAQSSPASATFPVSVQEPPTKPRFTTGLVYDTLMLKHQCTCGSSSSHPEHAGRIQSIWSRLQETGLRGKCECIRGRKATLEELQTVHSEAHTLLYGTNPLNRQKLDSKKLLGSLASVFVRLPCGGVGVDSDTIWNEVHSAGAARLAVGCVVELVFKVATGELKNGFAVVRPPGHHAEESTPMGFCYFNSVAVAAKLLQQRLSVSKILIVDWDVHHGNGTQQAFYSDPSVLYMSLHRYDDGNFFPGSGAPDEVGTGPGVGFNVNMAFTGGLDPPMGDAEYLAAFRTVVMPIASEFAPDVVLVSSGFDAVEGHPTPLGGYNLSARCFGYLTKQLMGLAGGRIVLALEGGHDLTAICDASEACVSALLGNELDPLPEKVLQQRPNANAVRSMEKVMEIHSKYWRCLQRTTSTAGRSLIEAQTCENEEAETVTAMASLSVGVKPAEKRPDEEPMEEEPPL

COc1ccc(N(C)c2nc(C)nc3ccccc23)cc1OCCCC(=O)NO [23BB, N-hydroxy-4-(2-methoxy-5-(methyl(2-methylquinazolin-4-yl)-amino)phenoxy)butanamide]
> 588.235: Selective Ratio HDAC4 (HDAC4) | Selective Ratio HDAC7 (HDAC7) | Selective Ratio HDAC5 (HDAC5) | Selective Ratio HDAC11 (HDAC11) | Selective Ratio HDAC9 (HDAC9)
